In patent publication US20100137314A1, “HARMFUL ORGANISM CONTROL COMPOSITION” (priority 2007, published 2010):

Key:
Bemisia tabaci [1] = experiment: Test Example 2: cabbage leaf disc immersion test, life or death of Bemisia tabaci imagoes after 2 days; format: in vivo; conditions: compound X alone 2000 ppm
Experimental: Ten parts of the compound I-(138) was dissolved in 40 parts of xylene and 40 parts of N,N-dimethylformamide, and thereto was added 10 parts of Sorpol 3005X (manufactured by TOHO Chemical Industry Co., LTD.). The mixture was stirred well to prepare a formulation.
The formulation of the compound X prepared in Test Example 1 was diluted with water to a predetermined concentration (2000 ppm). To the water dilution was added the formulation of the compound I-(138) so that the concentration of the compound I became a predetermined concentration (800 ppm). To the resulting dilution was added 1/5000 by volume of a spreading agent (New Rinou manufactured by Nihon Nohyaku) to prepare a test diluted solution.
Separately, the formulation of the compound I-(138) was diluted with water to a predetermined concentration (800 ppm). To the water dilution was added 1/5000 by volume of a spreading agent (New Rinou manufactured by Nihon Nohyaku) to prepare a test diluted solution. […]
On the other hand, 3 mL of 1% agar was put in a glass cup having an internal diameter of 2.6 cm and a height of 4.5 cm. […] After 2 days, the life or death of the Bemisia tabaci imagoes was determined, and a controlling value was calculated by the above-described equation.

Bemisia tabaci [2] = experiment: Test Example 1: cabbage leaf disc immersion test, life or death of Bemisia tabaci imagoes after 4 days; format: in vivo; conditions: foliar, 96 h, compound X alone 1000 ppm, cabbage leaf disc immersed 30 seconds, read-out: Pest controlling value (%)
Experimental: Ten parts of the compound X was dissolved in 40 parts of xylene and 40 parts of N,N-dimethylformamide, and thereto was added 10 parts of Sorpol 3005X (manufactured by TOHO Chemical Industry Co., LTD.). The mixture was stirred well to prepare a formulation. Separately, 10 parts of any one of the compound I-(5), the compound I-(34), the compound I-(68), the compound I-(70), the compound I-(74), the compound I-(115), the compound I-(117), the compound I-(119), the compound I-(204) and the compound I-(213) was dissolved in 40 parts of xylene and 40 parts of N,N-dimethylformamide, and thereto was added 10 parts of Sorpol 3005X (manufactured by TOHO Chemical Industry Co., LTD.). The mixture was stirred well to prepare a formulation. The formulation of the compound X was diluted with water to a predetermined concentration (1000 ppm). […] After 4 days, the life or death of the Bemisia tabaci imagoes was determined, and a controlling value was calculated by the following equation: […] wherein Cb: the number of insects in a non-treated section before treatment, Cai: the number of insects in a non-treated section on observation, Tb: the number of insects in a treated-section before treatment, Tai: the number of insects in a treated section on observation. […]

For CC#CCOc1cc(Cc2ccccc2Cl)ncn1 [compound X, 4-(2-chlorobenzyl)-6-(2-butynyloxy)pyrimidine], the “Pest controlling value (%)” value (Bemisia tabaci [1]) was 26% and the pest or weed control at 1000 ppm (Bemisia tabaci [2]) was 25%.
